{"source": "patent US20090137628A1", "about": "“Formulations of Indanylamines and the Use Thereof as Local Anesthetics and as Medication for Chronic Pain” (BRIDGE PHARMA, INC., priority 2005, published 2009)", "key": {"[1]": {"tested_on": "guinea pigs", "assay": "Dermal anesthetic activity after dermal application, pinprick method (algesimeter)", "assay_type": "in vivo, guinea pig", "details": "highest score over time after patch removal, 5.0% solution", "method": "The purpose of this study was to determine the degree to which various salt forms of LAC-34 contribute to the local dermal anesthetic effect of the compound, following dermal application to guinea pigs.\nFour groups of six male guinea pigs received a dose of 2.0 ml of a 5.0% solution of four test articles (LAC-34 base, LAC-34 mono-HCl, LAC-34-di HCl and LAC-34 mesylate) that had been applied onto a two inch square, 4 layer thick gauze pad on depilated dosal skin of each guinea pig. Similarly, one group of guinea pigs received the vehicle, which consisted of DMSO/water (90 percent/10 percent, v/v) and served as the control group. The gauze was occluded and the guinea pigs were wrapped for 30 min. Animals were assessed for initial pain reaction (anesthetic depth) at 15 minute intervals up to 3 hours and at 24 hours. An algesimeter, set at 10 g, was employed to assess the onset and depth of anesthesia using the pinprick method causing a twitch response or non-response. The “Average Anesthetic Score” was defined as number of probings not producing a dermal twitch response. Thus, a situation where there were no dermal twitch responses to six probings represent a maximal anesthetic effect and is denoted as an Average Anesthetic Score of 6."}, "[2]": {"tested_on": "Na+ channel (site 2) in the rat cerebral cortex", "details": "10 nM [3H]batrachotoxin, 60 min at 22° C., rat cerebral cortex membranes; read-out: IC50-values for inhibition of batrachotoxinin binding"}, "[3]": {"assay": "Physical state of LAC-34 solutions at 4° C.", "assay_type": "physicochemical", "details": "20% LAC-34 in benzyl alcohol"}, "[4]": {"assay": "Solubility in ternary solvent mixture with water as anti-solvent", "assay_type": "physicochemical", "details": "150 mg LAC-34 free base; 1 ml polyethylene glycol + 1 ml ethanol + 0.6 ml water"}, "[5]": {"tested_on": "animal models of neuropathic pain", "assay": "Animal models of neuropathic pain", "assay_type": "in vivo", "details": "potentiated by addition of capsaicin"}, "[6]": {"assay": "Saturation solubility in key solvents for dermal drug delivery", "assay_type": "physicochemical", "method": "A liquid's capability to solubilize LAC-34 was screened by adding a known mass of LAC-34 to a known volume/mass of liquid. Saturation solubility was measured by adding an excess of drug substance and allowing the suspension to equilibrate while stirring for 2-3 days. A sample of the suspension was filtered though a 0.2 μm PTFE membrane followed by dilution (if required) and HPLC analysis. For several mixed solvent systems that included water, a known mass of drug substance was dissolved in a known mass of solvent(s). This solution was then titrated with water while stirring until the solution became cloudy.\nHPLC analysis was performed with a HP 1050 system (He degasser, quaternary pump, auto-injector, and variable wavelength detector). The column heater was manufactured by Waters. Data collection and analysis was performed using Chemstation® software.\nThe saturation solubility of LAC-34 was measured in capric/caprylic triglycerides (CCT), dimethylsulfoxide (DMSO), ethanol, isopropanol, isopropyl myristate (IPM), pentane, propylene glycol (PG), and water. […]\nAll of the solvents, with the exception of water, were able to dissolve large quantities of LAC-34. […] Propylene glycol (PG), which has multiple actions for dermal drug delivery (see Table 1), was also able to solubilize significant quantities of LAC-34. […]"}, "[7]": {"assay": "Local vasodilatation at the dermal injection site", "assay_type": "in vivo", "details": "contrary to lidocaine"}}}
{"smiles": "c1ccc(N(CCC2CCCCN2)C2Cc3ccccc3C2)cc1", "note": "(racemic) [LAC-34, 2-[2-(N-Phenyl-N-2-indanyl)aminoethyl]piperidine]", "values": [{"measurement": "Maximal depth of anesthesia (Average Anesthetic Score)", "setting": "[1]", "value": 4.8}, {"measurement": "IC50", "setting": "[2]", "value": 270, "unit": "nM"}, {"measurement": "Physical state at 4° C.", "setting": "[3]", "value": "still a solution"}, {"measurement": "Solubility in ternary solvent mixture", "setting": "[4]", "value": "5.5 % (w/w)"}, {"measurement": "Analgesic activity", "setting": "[5]", "value": "exerts analgesic activity"}, {"measurement": "Solubility in isopropanol", "setting": "[6]; 0.25 g LAC-34 solubilized once isopropanol level was 0.225 g", "value": "approximately 526 mg/mL"}, {"measurement": "LAC-34 Solubility (saturation)", "setting": "[6]; solvent as printed on the line: Propylene glycol (PG)", "value": 5, "unit": "µg/mL"}, {"measurement": "Local vasodilatation at the dermal injection site", "setting": "[7]", "value": "not to cause local vasodilatation"}]}
